Experimental data published in patent US11452725B2, “Chiral diaryl macrocycles and uses thereof” (TURNING POINT THERAPEUTICS, INC., priority 2015, dated 2022).

Columns and labels:
IRR = target: T1, IRR (Homo sapiens, UniProt P14616); test: Biochemical kinase assay (Reaction Biology); settings: 10 μM ATP
T1 construct: purchased Reaction Biology Corporation (contract assay)
Description: Specific kinase/substrate pairs along with required cofactors were prepared in reaction buffer; 20 mM Hepes pH 7.5, 10 mM MgCl2, 1 mM EGTA, 0.02% Brij35, 0.02 mg/ml BSA, 0.1 mM Na3VO4, 2 mM DTT, 1% DMSO (for specific details of individual kinase reaction components see Supplementary Table 2). Compounds were delivered into the reaction, followed ˜20 minutes later by addition of a mixture of ATP (Sigma, St. Louis Mo.) and ^33P ATP (Perkin Elmer, Waltham Mass.) to a final concentration of 10 μM. Reactions were carried out at room temperature for 120 min, followed by spotting of the reactions onto P81 ion exchange filter paper (Whatman Inc., Piscataway, N.J.). […] IC50 values and curve fits were obtained using Prism (GraphPad Software).

[1] = system: Ba/F3 EML4-ALK C1156Y cell line; test: Cell proliferation assay (CellTiter-Glo); format: cell-based; settings: Mus musculus, 72 hours
[2] = system: Ba/F3 EML4-ALK L1152P cell line; test: Cell proliferation assay (CellTiter-Glo); format: cell-based; settings: Mus musculus, 72 hours
[3] = Body weight of mice in xenograft studies; format: in vivo
Description: Female athymic nude mice and SCID/Beige mice (5-8 weeks of age) were obtained from Charles River Laboratory and were housed in Innovive IVC disposable cages on HEPA filtered ventilated racks with ad libitum access to rodent chow and water. Five million cells in 100 μL, serum-free medium were implanted subcutaneously in the right flank region of the mouse. Karpas299 cells were implanted into the SCID/Beige mice. KM12 cells, NIH3T3 EML4-ALK wild type mutant cells, and NIH3T3 SCD4-ROS1 wild type mutant cells were implanted into the athymic nude mice, respectively. All models except KM12 were implanted with 50% matrigel (Corning, Inc) in the medium. Tumor size and body weight were measured on designated days. Tumor size was measured with an electronic caliper and tumor volume was calculated as the product of length*width^2*0.5.
Female athymic nude mice and SCID/Beige mice (5-8 weeks of age) were obtained from Charles River Laboratory and were housed in Innovive IVC disposable cages on HEPA filtered ventilated racks with ad libitum access to rodent chow and water. Five million cells in 100 μL serum-free medium were implanted subcutaneously in the right flank region of the mouse. Ba/F3 EML4-ALK wild type and G1202R mutant cells, Ba/F3 CD74-ROS1 wild type and G2032R mutant cells were implanted into the SCID/Beige mice. NIH3T3 CD74-ROS1 G2032 mutant cells, NIH3T3 LMNA-TRKA wild type and G595R mutant cells were implanted into the athymic nude mice, respectively. All models were implanted with 50% matrigel (Corning, Inc) in the medium. Tumor size and body weight were measured on designated days. Tumor size was measured with an electronic caliper and tumor volume was calculated as the product of length*width^2*0.5.

[4] = system: Ba/F3 EML4-ALK F1174C cell line; test: Cell proliferation assay (CellTiter-Glo); format: cell-based; settings: Mus musculus, 72 hours
[5] = system: Ba/F3 EML4-ALK L1196M cell line; test: Cell proliferation assay (CellTiter-Glo); format: cell-based; settings: Mus musculus, 72 hours
AKT [6] = test: Immunoblotting downstream signaling, KM12 cells; format: cell-based; settings: Homo sapiens; KM12 cell line; read-out: downstream AKT phosphorylation IC50
Description: (§1) NSCLC cell line H2228 (harboring endogenous EML4-ALK fusion gene), HCC78 cells (harboring endogenous SLC34A2-ROS1 fusion gene), Karpas-299 cells (harboring endogenous NPM-ALK fusion gene) or SET-2 (harboring endogenous JAK2V617F activating mutation) were cultured in RPMI medium, and KM12 (harboring endogenous TPM3-TRKA fusion gene) cell line was cultured in DMEM medium, both supplemented with 10% fetal bovine serum and 100 U/mL of penicillin/streptomycin. Ba/F3 and NIH3T3 cells stably expressing ALK or ROS1 (WT or mutant) were culture as mentioned above. […] Protein lysates (approximately 20 μg) was resolved on 4-12% Bolt Bis-Tris precasted gels with MES running buffer (Life Technologies), transferred to nitrocellulose membranes using Trans-Blot Turbo Transfer System (Bio-Rad) and detected with antibodies targeting phosphorylated ALK Y1604 (Cell Signaling Technology), total ALK (Cell Signaling Technology), phosphorylated ROS1 and total ROS1 (Cell Signaling Technology), phosphorylated TRK A/B (Cell Signaling Technology), total TRKA antibody (Santa Cruz Biotechnology), phosphorylated STAT3 and STAT5, total STAT3 and STAT5 (Cell Signaling Technology), phosphorylated AKT (Cell Signaling Technology), total AKT (Cell Signaling Technology), phosphorylated ERK (Cell Signaling Technology), total ERK (Cell Signaling Technology) and Tubulin (Sigma). […]

ERK = test: Immunoblotting downstream signaling, KM12 cells; format: cell-based; settings: Homo sapiens; KM12 cell line; read-out: downstream ERK phosphorylation IC50
Description: as §1

AKT [7] = test: Immunoblotting downstream signaling, HCC78 cells; format: cell-based; settings: Homo sapiens; HCC78 cell line; read-out: downstream AKT phosphorylation IC50
Description: as §1

STAT3 = test: Immunoblotting downstream signaling, HCC78 cells; format: cell-based; settings: Homo sapiens; HCC78 cell line; read-out: downstream STAT3 phosphorylation IC50
Description: as §1

[8] = system: Ba/F3 TEL-TRKC (ETV6-TRKC) G623R cell line; test: Cell proliferation assay (CellTiter-Glo); format: cell-based; settings: Mus musculus, BaF3; 72 hours
[9] = system: Ba/F3 EML4-ALK G1202R cell line; test: Cell proliferation assay (CellTiter-Glo); format: cell-based; settings: Mus musculus, 72 hours

T1 sequence (P14616 27-1297): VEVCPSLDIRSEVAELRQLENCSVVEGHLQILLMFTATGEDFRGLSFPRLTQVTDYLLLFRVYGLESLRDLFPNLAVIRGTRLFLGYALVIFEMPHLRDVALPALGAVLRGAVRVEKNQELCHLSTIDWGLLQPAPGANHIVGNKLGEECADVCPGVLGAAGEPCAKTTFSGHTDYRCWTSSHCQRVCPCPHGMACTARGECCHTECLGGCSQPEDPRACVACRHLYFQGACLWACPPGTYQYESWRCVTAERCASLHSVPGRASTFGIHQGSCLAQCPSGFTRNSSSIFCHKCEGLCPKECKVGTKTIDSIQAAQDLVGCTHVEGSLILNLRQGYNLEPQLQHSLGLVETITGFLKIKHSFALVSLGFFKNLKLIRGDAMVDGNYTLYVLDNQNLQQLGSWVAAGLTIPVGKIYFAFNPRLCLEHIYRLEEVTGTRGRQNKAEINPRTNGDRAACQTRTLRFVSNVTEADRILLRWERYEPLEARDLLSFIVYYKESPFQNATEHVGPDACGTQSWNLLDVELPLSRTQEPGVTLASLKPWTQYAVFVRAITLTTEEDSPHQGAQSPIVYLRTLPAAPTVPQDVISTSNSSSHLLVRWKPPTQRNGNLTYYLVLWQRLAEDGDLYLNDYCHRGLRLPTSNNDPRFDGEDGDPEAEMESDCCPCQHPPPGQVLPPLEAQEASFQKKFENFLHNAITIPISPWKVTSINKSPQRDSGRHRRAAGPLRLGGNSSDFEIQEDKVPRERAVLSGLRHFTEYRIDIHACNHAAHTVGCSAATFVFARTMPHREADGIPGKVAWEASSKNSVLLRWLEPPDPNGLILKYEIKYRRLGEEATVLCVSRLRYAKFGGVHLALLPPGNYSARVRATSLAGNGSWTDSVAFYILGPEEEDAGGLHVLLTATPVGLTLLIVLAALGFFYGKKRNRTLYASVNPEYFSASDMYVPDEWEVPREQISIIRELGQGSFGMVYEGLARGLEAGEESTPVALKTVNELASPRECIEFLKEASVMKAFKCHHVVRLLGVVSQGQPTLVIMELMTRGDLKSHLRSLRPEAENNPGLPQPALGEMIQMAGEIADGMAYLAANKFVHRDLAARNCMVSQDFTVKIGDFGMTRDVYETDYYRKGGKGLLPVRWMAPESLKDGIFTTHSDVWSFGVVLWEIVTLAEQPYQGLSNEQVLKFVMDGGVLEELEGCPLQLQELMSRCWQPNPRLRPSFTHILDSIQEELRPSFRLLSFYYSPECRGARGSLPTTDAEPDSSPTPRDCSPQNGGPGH

For C[C@H]1CNC(=O)c2cnn3ccc(nc23)N[C@H](C)c2cc(F)ccc2O1 [Compound 1, (7S,13R)-11-fluoro-7,13-dimethyl-6,7,13,14-tetrahydro-1,15-ethenopyrazolo[4,3-f][1,4,8,10]benzoxatriazacyclotridecin-4(5H)-one], which IC50 (IRR) is on record?
Its IC50 is 18.1 nM.

And the IC50 [1]?
Its IC50 is 98 nM.

What about the IC50 [2] of the same compound?
The IC50 was 85 nM.

And the “Body weight of the mice” value ([3]; Ba/F3 CD74-ROS1 G2032R model, 15 and 75 mg/kg BID, 11 days)?
Its value is “no body weight loss was observed”.

What about the “Body weight of the mice” value ([3]; Ba/F3 CD74-ROS1 WT model, 15 and 75 mg/kg BID, 12 days) of the same compound?
The value was “no body weight loss was observed”.

And the “Body weight of the mice” value ([3]; Ba/F3 EML4-ALK G1202R model, 15 and 75 mg/kg BID, 17 days)?
The value was “no body weight loss was observed”.

And the “Body weight of the mice” value ([3]; Ba/F3 EML4-ALK WT model, 15 and 75 mg/kg BID, 14 days)?
Its value is “no body weight loss was observed”.

What about the “Body weight of the mice” value ([3]; KM12 model Example 13, 15 and 75 mg/kg BID, seven days) of the same compound?
The value was “No loss of body weight”.

And the “Body weight of the mice” value ([3]; KM12 model Example 15, 1, 3 and 15 mg/kg BID, seven days)?
The value was “No loss of body weight”.

What about the “Body weight of the mice” value ([3]; Karpas 299 model, 15 and 50 mg/kg BID, seven days) of the same compound?
The value was “no body weight loss was observed”.

What about the “Body weight of the mice” value ([3]; NIH3T3 EML4-ALK WT model, 15 and 50 mg/kg BID, 12 days) of the same compound?
The value was “no body weight loss was observed”.

What about the “Body weight of the mice” value ([3]; NIH3T3 LMNA-TRKA G595R model, 3, 15 and 60 mg/kg BID, five days) of the same compound?
The value was “no body weight loss was observed”.

And the “Body weight of the mice” value ([3]; NIH3T3 LMNA-TRKA WT model, 3 and 15 mg/kg BID, five days)?
Its value is “No loss of body weight”.

What about the IC50 [4] of the same compound?
Its IC50 is 54 nM.

And the IC50 [5]?
Its IC50 is 50 nM.

And the IC50 (AKT [6])?
Its IC50 is ~0.3 nM.

What about the IC50 (ERK) of the same compound?
The IC50 was ~0.3 nM.

What about the IC50 (AKT [7]) of the same compound?
The IC50 was 1 to 3 nM.

And the IC50 (STAT3)?
Its IC50 is 1 to 3 nM.

And the IC50 [8]?
Its IC50 is 3 nM.

What about the IC50 [9] of the same compound?
The IC50 was 20.5 nM.
